Target: T1, cynomolgus BK1-receptor (Macaca fascicularis, UniProt Q3BCU0)
T1 construct: expressed in transfected cells; host or cells: CHO cells
T1 sequence (Q3BCU0 1-352): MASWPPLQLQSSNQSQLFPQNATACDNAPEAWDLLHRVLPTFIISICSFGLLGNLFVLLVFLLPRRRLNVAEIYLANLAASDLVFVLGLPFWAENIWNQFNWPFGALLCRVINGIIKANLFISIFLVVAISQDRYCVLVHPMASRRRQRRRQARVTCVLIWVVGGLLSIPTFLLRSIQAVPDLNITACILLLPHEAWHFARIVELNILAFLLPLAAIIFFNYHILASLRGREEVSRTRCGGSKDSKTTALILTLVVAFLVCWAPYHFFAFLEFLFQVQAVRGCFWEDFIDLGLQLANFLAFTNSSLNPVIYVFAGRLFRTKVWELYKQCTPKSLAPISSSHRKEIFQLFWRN
Test: cynoBK1 receptor binding assay
Conditions: homogenate of CHO cells expressing cynomolgus BK1-receptor; radioligand 0.5 to 5.0 nM kallidin (DesArg10,Leu9), [3,4-Prolyl-3,43H(N)]; ambient temperature
Protocol: Description of the Method of Binding the cynoBK1-Receptor
CHO cells that express the cynomolgus BK1-receptor are cultivated in “HAM'S F-12 Medium”. The medium is removed from confluent cultures, the cells are washed with PBS buffer, scraped off or detached using Versene and isolated by centrifuging. Then the cells are homogenised in suspension, the homogenate is centrifuged and resuspended. After the protein content has been determined 200 μl of the homogenate (50 to 250 μg protein/assay) are incubated for 60-180 minutes at ambient temperature with 0.5 to 5.0 nM kallidin (DesArg10,Leu9), [3,4-Prolyl-3,43H(N)] and increasing concentrations of the test substance in a total volume of 250 μl. The incubation is stopped by rapid filtration through GF/B glass fibre filters that have been pre-treated with polyethyleneimine (0.3%). The radioactivity bound to the protein is measured with a TopCount NXT. The radioactivity bound in the presence of 1.0 μM kallidin (DesArg10) is defined as non-specific binding. The concentration binding curve may be analysed using computer-aided non-linear curve fitting to determine the corresponding Ki values for the test substance.

- Ki: 5.6 nM
SMILES: O=C(N[C@@]1(C(=O)NCc2ncc(Nc3ccc(Cl)cc3C(F)(F)F)cc2F)CCOC1)c1cn[nH]c(=O)c1 [(5)]
